Values of other authors as cited in US20230405076A1, “COMPOSITION COMPRISING AKKERMANSIA MUCINIPHILA AND GREEN TEA EXTRACT” (A-MANSIA BIOTECH, priority 2020, published 2023).

Key:
[1] = via EGCG promoted increase of Akkermansia muciniphila, Sheng 2018
[2] = tested on: Akkermansia genus in the Verrucomicrobia; details: high fat diet mice, Ushiroda 2019

Epigallocatechin-3-gallate
diet-increased obesity, visceral fat, and insulin resistance [1]: effectively reduces
abundance of the Akkermansia genus [2]: increase
